Reference: patent US9340575B2, “Agonists and antagonists of the urotensinergic system” (INSTITUT NATIONAL DE LA RECHERCHE SCIENTIFIQUE, priority 2011, dated 2016)

Columns and labels:
rat thoracic aorta rings = type: cell-based; details: percentage of KCl (40 mM) contraction; at 10^−5.5M
[1] = target: T1, human urotensin II receptor (UT) (Homo sapiens, UniProt Q9UKP6); assay: Competitive radioligand binding on CHO-UT cells; details: for IC50: recombinant human UT
T1 construct: expressed in transfected cells; host or cells: CHO cells (CHO-UT), stably transfected, G418 selection
T1 sequence (Q9UKP6 1-389): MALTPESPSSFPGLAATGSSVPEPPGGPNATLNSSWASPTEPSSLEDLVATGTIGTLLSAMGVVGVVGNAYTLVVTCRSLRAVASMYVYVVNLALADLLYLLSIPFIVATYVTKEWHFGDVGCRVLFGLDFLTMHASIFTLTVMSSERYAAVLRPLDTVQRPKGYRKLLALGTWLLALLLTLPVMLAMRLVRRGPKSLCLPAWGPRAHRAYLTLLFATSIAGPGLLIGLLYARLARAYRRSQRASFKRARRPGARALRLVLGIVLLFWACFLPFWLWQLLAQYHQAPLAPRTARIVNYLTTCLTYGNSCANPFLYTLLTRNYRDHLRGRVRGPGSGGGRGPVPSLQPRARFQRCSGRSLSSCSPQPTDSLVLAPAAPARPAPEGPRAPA
Procedure: Transfected CHO cells expressing the human urotensin receptor (CHO-UT) were maintained in Ham-F12 medium with 10% fetal bovine serum (FBS), 2 mM L-glutamine, 100 UI/mL each of penicillin and streptomycin, and 400 μg/mL G418. […] Binding assays were following known literature procedures using CHO cells stably transfected with hGPR14. […] After 90 min of incubation at room temperature, cells were washed, lysed, and the cell-bound radioactivity was quantified using a γ-counter. […] The cells were then washed, lysed, and the radioactivity counted on a γ-counter (1470 Automatic Gamma Counter, Perkin Elmer). Binding and functional experiments were performed at least in triplicate and data, expressed as mean±S.E.M, were analyzed using the Prism software (Graph Pad Software, San Diego, Calif.). In all experiments, n represents the total number of animals studied or individual assays performed. The EC50, pEC50, pIC50 values as well as the Emax value were determined from the concentration-response curves using a sigmoidal dose-response fit with variable slope. […] The slope is calculated from the double reciprocal plot of equiactive concentrations of agonist in the presence and absence of antagonist.

IC50 ([1]; Binding (125I-URP) IC50 (nM), radioligand 125I-URP): 339 nM | IC50 ([1]; Binding (125I-hUII) IC50 (nM), radioligand 125I-hUII): 386 nM | Displacement of both radioligands (125I-hUII and 125I-URP) ([1]; CHO-UT cells): 100%
Compound: CC(C)[C@H](NC(=O)[C@@H]1CSSC[C@H](NC(=O)[C@H](C)N)C(=O)N[C@@H](Cc2ccccc2)C(=O)N[C@@H](Cc2ccc(-c3ccccc3)cc2)C(=O)N[C@@H](CCCCN)C(=O)N[C@@H](Cc2ccc(O)cc2)C(=O)N1)C(=O)O [[Bip^4]URP, H-Ala-Cys-Phe-Bip-Lys-Tyr-Cys-Val-OH]
Aortic Ring contraction Emax (%), maximum efficacy at 10^−5.5M (rat thoracic aorta rings): 8.7%
